Values belong to the compound of their own block, whether it stands above or below them. Calls of active or inactive are those of the source. The calls are words filed in the database; no cut-off is given here.
What was measured:
[1] = target: T1, Protein arginine N-methyltransferase 9 (Homo sapiens) (UniProt Q6P2P2); assay: Inhibition of human recombinant PRMT9 using biotinylated SF3B2(500 to 519 residues) as substrate and SAM as cosubstrate pre-incubated with compound for 30 mins followed by substrate addition measured after 60 mins by AlphaLISA assay; details: time 90.0 min
T1 sequence (whole entry): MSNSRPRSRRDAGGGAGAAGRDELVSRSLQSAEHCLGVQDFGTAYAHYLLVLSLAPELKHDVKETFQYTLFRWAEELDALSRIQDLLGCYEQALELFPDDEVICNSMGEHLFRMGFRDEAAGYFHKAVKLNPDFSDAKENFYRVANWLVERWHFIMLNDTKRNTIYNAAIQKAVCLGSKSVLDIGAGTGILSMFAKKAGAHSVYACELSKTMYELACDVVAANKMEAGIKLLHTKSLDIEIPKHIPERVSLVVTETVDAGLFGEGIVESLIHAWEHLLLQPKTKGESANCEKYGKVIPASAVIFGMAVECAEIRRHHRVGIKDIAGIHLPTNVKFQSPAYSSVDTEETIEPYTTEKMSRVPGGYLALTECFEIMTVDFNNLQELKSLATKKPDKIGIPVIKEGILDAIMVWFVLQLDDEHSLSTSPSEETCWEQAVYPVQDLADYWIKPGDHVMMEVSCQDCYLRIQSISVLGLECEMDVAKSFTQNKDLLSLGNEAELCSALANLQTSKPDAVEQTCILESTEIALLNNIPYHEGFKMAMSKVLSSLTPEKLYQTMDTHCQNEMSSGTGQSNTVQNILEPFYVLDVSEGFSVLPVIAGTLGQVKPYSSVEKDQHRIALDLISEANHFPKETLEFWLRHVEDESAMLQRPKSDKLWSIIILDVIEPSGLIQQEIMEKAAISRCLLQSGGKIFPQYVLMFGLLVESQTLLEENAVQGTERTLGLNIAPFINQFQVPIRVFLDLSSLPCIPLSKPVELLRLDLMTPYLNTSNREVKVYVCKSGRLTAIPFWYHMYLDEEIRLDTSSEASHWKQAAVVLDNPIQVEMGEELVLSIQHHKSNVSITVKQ

[2] = target: T1, Protein arginine N-methyltransferase 9 (Homo sapiens); assay: Inhibition of human GST-fused PRMT9 expressed in Escherichia coli at 100 uM using human GST-SF3B2 (401 to 550 residues) peptide as substrate and human histone H2B as cosubstrate incubated under 37 degreeC in presence of 3H-SAM by SDS-PAGE based densitometric analysis
[3] = target: T1, Protein arginine N-methyltransferase 9 (Homo sapiens); assay: Inhibition of human GST-fused PRMT9 expressed in Escherichia coli using human GST-SF3B2 (401 to 550 residues) peptide as substrate and human histone H2B as cosubstrate under 37 degreeC in presence of 3H-SAM by SDS-PAGE based densitometric analysis; details: dose 5-100 µM
[4] = target: T1, Protein arginine N-methyltransferase 9 (Homo sapiens); assay: Inhibition of PRMT9 catalysed SF3B2 R508 methylation in human MCF7 cells upto 100 uM measured after 72 hrs by immunoblotting analysis; assay type: cell-based
Caenorhabditis elegans [5] = assay: (§1) Inhibition of Caenorhabditis elegans GST-fused PRMT7 expressed in Escherichia coli at 100 uM using Caenorhabditis elegans GST-SFTB-2 (99 to 248 residues) peptide as substrate and human histone H2B as cosubstrate incubated under 15 degreeC in presence of 3H-SAM by SDS-PAGE based densitometric analysis
Caenorhabditis elegans [6] = assay: as §1, with “PRMT9” for “PRMT7”, “GST-SFTB2” for “GST-SFTB-2”, “25” for “15”, “analysis relative to control” for “analysis”
Caenorhabditis elegans [7] = assay: as §1, with “250” for “100”, “analysis relative to control” for “analysis”
[8] = target: T1, Protein arginine N-methyltransferase 9 (Homo sapiens); assay: Inhibition of human GST-fused PRMT9 expressed in Escherichia coli at 100 uM using human GST-SF3B2 (401 to 550 residues) peptide as substrate and human histone H2B as cosubstrate incubated under 37 degreeC in presence of 3H-SAM by SDS-PAGE based densitometric analysis relative to control
Caenorhabditis elegans [9] = assay: as §1, with “PRMT9” for “PRMT7”, “25 to 50” for “100”, “GST-SFTB2” for “GST-SFTB-2”, “25” for “15”, “analysis relative to control” for “analysis”; details: dose 25-50 µM
[10] = target: T1, Protein arginine N-methyltransferase 9 (Homo sapiens); assay: Inhibition of PRMT9 catalysed SF3B2 R508 methylation in human MDA-MB-436 cells upto 100 uM measured after 72 hrs by immunoblotting analysis; assay type: cell-based
[11] = target: T1, Protein arginine N-methyltransferase 9 (Homo sapiens); assay: Inhibition of human GST-fused PRMT9 expressed in Escherichia coli at less than 5 uM using human GST-SF3B2 (401 to 550 residues) peptide as substrate and human histone H2B as cosubstrate incubated under 37 degreeC in presence of 3H-SAM by SDS-PAGE based densitometric analysis relative to control
[12] = target: T2, Protein arginine N-methyltransferase 7 (Homo sapiens) (UniProt Q9NVM4); assay: Inhibition of human GST-fused PRMT7 expressed in Escherichia coli at 100 uM using human GST-SF3B2 (401 to 550 residues) peptide as substrate and human histone H2B as cosubstrate incubated under 15 degreeC in presence of 3H-SAM by SDS-PAGE based densitometric analysis
T2 sequence (whole entry): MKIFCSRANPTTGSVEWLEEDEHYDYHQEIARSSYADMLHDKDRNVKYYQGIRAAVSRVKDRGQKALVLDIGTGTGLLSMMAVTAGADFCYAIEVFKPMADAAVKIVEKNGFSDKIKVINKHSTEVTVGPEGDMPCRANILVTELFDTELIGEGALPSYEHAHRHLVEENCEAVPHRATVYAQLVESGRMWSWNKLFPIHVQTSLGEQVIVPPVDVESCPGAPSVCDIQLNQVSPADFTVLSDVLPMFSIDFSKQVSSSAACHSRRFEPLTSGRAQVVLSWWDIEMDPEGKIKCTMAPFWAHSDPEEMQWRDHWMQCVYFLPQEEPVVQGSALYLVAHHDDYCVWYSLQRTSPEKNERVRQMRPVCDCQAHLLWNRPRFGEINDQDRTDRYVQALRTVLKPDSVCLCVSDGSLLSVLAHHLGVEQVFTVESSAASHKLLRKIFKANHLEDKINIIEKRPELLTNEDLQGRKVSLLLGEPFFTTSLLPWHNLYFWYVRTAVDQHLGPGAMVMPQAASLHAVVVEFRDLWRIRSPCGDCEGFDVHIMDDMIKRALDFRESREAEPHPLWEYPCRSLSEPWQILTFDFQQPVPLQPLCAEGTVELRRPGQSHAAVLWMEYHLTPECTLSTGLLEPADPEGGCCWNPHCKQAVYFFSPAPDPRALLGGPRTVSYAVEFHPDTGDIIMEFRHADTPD

[13] = Selectivity ratio of human GST-fused PRMT9 to Caenorhabditis elegans GST-fused PRMT9

- inhibition [1]: inactive
Structure (SMILES): COC(=O)c1cc(O)c2cc(NC(=O)Nc3ccc4cc(C(=O)OC)cc(O)c4c3)ccc2c1

- inhibition [1]: inactive
Structure (SMILES): O=C(Nc1ccc2[nH]cc(C(=O)O)c2c1)Nc1ccc2[nH]cc(C(=O)O)c2c1

- inhibition [3]: Dose-Dependent Effect
- inhibition [4]: inactive
- inhibition (Caenorhabditis elegans [5]): inactive
- inhibition (Caenorhabditis elegans [6]): 100%
- inhibition [12]: Active
- Selectivity ratio [13]: 5
- inhibition [8]: 100%
- inhibition [10]: inactive
Structure (SMILES): COC(=O)c1cc(O)c2cc(NC(=O)NCCCCCNC(=N)NC[C@H]3O[C@@H](n4cnc5c(N)ncnc54)[C@H](O)[C@@H]3O)ccc2c1

- inhibition [4]: inactive
- inhibition [10]: inactive
Structure (SMILES): COC(=O)c1cc(O)c2cc(NC(=O)NCCCCNC(=N)NCC[C@H]3O[C@@H](n4cnc5c(N)ncnc54)[C@H](O)[C@@H]3O)ccc2c1

- inhibition [3]: Dose-Dependent Effect
- inhibition (Caenorhabditis elegans [5]): inactive
- inhibition (Caenorhabditis elegans [6]): 100%
- inhibition (Caenorhabditis elegans [7]): 50%
- inhibition [12]: Active
- inhibition [8]: 100%
- inhibition (Caenorhabditis elegans [9]): 50%
- inhibition [11]: 50%
Structure (SMILES): COC(=O)c1cc(O)c2cc(NC(=O)NCCCCNC(=N)NC[C@H]3O[C@@H](n4cnc5c(N)ncnc54)[C@H](O)[C@@H]3O)ccc2c1

- inhibition [1]: inactive
Structure (SMILES): O=C(CC(=O)Nc1ccc2[nH]cc(C(=O)O)c2c1)Nc1ccc2[nH]cc(C(=O)O)c2c1

The next lines start with the compound.

Structure (SMILES): CSC[C@H]1O[C@@H](n2cnc3c(N)ncnc32)[C@H](O)[C@@H]1O
- inhibition [2]: Active

Structure (SMILES): COC(=O)c1cc(O)c2cc(NC(=O)NCCCNC(=N)NC[C@H]3O[C@@H](n4cnc5c(N)ncnc54)[C@H](O)[C@@H]3O)ccc2c1
- inhibition [3]: Dose-Dependent Effect
- inhibition [4]: inactive
- inhibition (Caenorhabditis elegans [5]): inactive
- inhibition (Caenorhabditis elegans [6]): 100%
- inhibition (Caenorhabditis elegans [7]): 50%
- inhibition [8]: 100%
- inhibition (Caenorhabditis elegans [9]): 50%
- inhibition [10]: inactive
- inhibition [11]: 50%

Structure (SMILES): COC(=O)c1c[nH]c2ccc(NC(=O)CC(=O)Nc3ccc4[nH]cc(C(=O)OC)c4c3)cc12
- inhibition [1]: inactive

Structure (SMILES): CCOC(=O)c1cc2cc(NC(=O)CNC(=O)Nc3ccc([N+](=O)[O-])cc3)ccc2[nH]1
- inhibition [1]: inactive

Structure (SMILES): COC(=O)c1cc(O)c2cc(NC(=O)NCCCCCCCNC(=N)NC[C@H]3O[C@@H](n4cnc5c(N)ncnc54)[C@H](O)[C@@H]3O)ccc2c1
- inhibition [4]: inactive
- inhibition [10]: inactive

Structure (SMILES): O=C(Nc1ccc2cc(C(=O)O)cc(O)c2c1)Nc1ccc2cc(C(=O)O)cc(O)c2c1
- inhibition [1]: inactive
